Results taken from ChEMBL document CHEMBL5038674, “Structure-Activity Relationship of Anti-Mycobacterium abscessus Piperidine-4-carboxamides, a New Class of NBTI DNA Gyrase Inhibitors” (ACS Med Chem Lett, 2022).
pIC50: −log10 of the molar value. Converted amounts (≈) assume the structure as drawn. The source made the active and inactive calls. No cut-off for these calls is given here.

Assays:
[1] = Inhibition of Mycobacterium abscessus DNA gyrase using pBR322 DNA as substrate […] by fluorescence based microplate reader assay; parameters: species or system Mycobacteroides abscessus
[2] = Lipophilicity, logP of compound; assay type: physicochemical; details: octanol/water
[3] = Antimycobacterial activity against Mycobacterium abscessus subsp. abscessus bamboo strain assessed as inhibition of mycobacterial growth incubated for 3 days by broth microdilution method; assay type: functional; details: Mycobacteroides abscessus, 72 h, time 3 day
[4] = tested on: Mycobacterium abscessus subsp. abscessus; experiment: Upregulation of RecA promoter activity in Mycobacterium abscessus subsp. abscessus ATCC 19977 assessed as bacterial DNA damage by luminescence assay; assay type: functional
[5] = tested on: Mycobacterium abscessus subsp. abscessus; experiment: Upregulation of RecA promoter activity in P4C resistant Mycobacterium abscessus subsp. abscessus ATCC 19977 mutant D91N assessed as bacterial DNA damage by luminescence assay; assay type: functional; details: time 3.0 day
[6] = biological target: Voltage-gated inwardly rectifying potassium channel KCNH2 (Homo sapiens, UniProt Q12809); experiment: Inhibition of human ERG; assay type: toxicity
Chain of Voltage-gated inwardly rectifying potassium channel KCNH2 (Q12809 whole entry): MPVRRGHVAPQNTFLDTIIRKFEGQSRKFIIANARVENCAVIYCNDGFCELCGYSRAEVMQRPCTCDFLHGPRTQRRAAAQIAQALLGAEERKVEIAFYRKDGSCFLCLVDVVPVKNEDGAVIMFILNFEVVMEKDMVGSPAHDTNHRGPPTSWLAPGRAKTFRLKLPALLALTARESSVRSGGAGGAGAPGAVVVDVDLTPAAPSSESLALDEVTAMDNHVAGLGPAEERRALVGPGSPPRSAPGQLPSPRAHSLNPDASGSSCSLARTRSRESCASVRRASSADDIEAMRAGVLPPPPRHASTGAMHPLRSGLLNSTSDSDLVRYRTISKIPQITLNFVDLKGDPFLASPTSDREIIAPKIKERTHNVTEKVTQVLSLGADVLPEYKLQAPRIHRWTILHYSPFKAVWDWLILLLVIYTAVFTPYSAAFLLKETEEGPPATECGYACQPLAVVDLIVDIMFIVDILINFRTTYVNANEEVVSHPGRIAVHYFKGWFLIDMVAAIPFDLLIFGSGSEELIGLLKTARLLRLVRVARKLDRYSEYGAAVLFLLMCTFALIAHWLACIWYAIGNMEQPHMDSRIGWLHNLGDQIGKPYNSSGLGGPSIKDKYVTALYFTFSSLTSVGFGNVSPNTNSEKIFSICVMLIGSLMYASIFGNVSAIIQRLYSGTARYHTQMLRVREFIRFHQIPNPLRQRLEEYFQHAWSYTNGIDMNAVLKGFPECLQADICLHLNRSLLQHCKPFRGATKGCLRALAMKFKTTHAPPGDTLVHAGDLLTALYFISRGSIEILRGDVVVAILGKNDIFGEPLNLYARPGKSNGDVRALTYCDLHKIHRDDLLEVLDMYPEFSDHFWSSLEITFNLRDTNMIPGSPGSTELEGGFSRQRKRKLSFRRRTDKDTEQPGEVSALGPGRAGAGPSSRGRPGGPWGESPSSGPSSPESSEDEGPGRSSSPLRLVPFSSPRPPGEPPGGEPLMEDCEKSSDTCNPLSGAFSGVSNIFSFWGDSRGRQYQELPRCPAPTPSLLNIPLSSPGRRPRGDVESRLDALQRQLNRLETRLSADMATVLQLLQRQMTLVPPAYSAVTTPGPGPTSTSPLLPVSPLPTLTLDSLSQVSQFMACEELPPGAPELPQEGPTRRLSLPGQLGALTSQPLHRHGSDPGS

FaDu = experiment: Cytotoxicity against human FaDu cells assessed as reduction in cell viability upto 30 uM after 24 hrs by SRB assay; assay type: functional, cell-based; details: dose microM <=30, time 24.0 hrs
[7] = Stability of compound in CD1 mouse plasma assessed as parent compound remaining by QE-HRMS analysis; assay type: ADME, cell-free
[8] = Antimycobacterial activity against Mycobacterium abscessus subsp. bolletii CCUG 50184T assessed as inhibition of mycobacterial growth incubated for 3 days by broth microdilution method; assay type: functional; details: Mycobacteroides abscessus, 72 h, time 3 day
NIH3T3 = experiment: Cytotoxicity against mouse NIH3T3 cells assessed as reduction in cell viability upto 30 uM after 24 hrs by SRB assay; assay type: toxicity, cell-based; details: nih3t3, 24 h
Mycobacterium avium = experiment: Antimycobacterial activity against Mycobacterium avium 11 assessed as inhibition of mycobacterial growth incubated for 3 days by broth microdilution method; assay type: functional; details: Mycobacterium avium, 11, 72 h; time 3 day
[9] = Stability of compound in CD1 mouse at 25 mg/kg, po by HPLC-MS/MS analysis; assay type: ADME, organism-based; details: in vivo
[10] = Antimycobacterial activity against Mycobacterium abscessus subsp. massiliense CCUG 48898T assessed as inhibition of mycobacterial growth incubated for 3 days by broth microdilution method; assay type: functional; details: Mycobacteroides abscessus, 72 h, time 3 day
[11] = tested on: Mycobacteroides abscessus; experiment: Antimycobacterial activity against Mycobacterium abscessus ATCC 19977 assessed as inhibition of mycobacterial growth incubated for 3 days by broth microdilution method; assay type: functional; details: ATCC 19977, 72 h, time 3 day
A-375 = experiment: Cytotoxicity against human A375 cells assessed as reduction in cell viability upto 30 uM after 24 hrs by SRB assay; assay type: functional, cell-based; details: dose microM <=30, time 24.0 hrs
HT-29 = experiment: Cytotoxicity against human HT-29 cells assessed as reduction in cell viability upto 30 uM after 24 hrs by SRB assay; assay type: functional, cell-based; details: dose microM <=30, time 24.0 hrs
MCF7 = experiment: Cytotoxicity against human MCF7 cells assessed as reduction in cell viability upto 30 uM after 24 hrs by SRB assay; assay type: functional, cell-based; details: dose microM <=30, time 24.0 hrs
[12] = tested on: Mycobacteroides abscessus; experiment: Antimycobacterial activity against Mycobacterium abscessus K21 assessed as inhibition of mycobacterial growth incubated for 3 days by broth microdilution method; assay type: functional; details: K21, 72 h, time 3 day
HEK293 = experiment: Cytotoxicity against human HEK293 cells assessed as reduction in cell viability upto 30 uM after 24 hrs by SRB assay; assay type: toxicity, cell-based; details: hek293, 24 h
Staphylococcus aureus = experiment: Antibacterial activity against Staphylococcus aureus assessed as inhibition of bacterial growth incubated for 3 days by broth microdilution method; assay type: functional; details: 72 h, time 3 day
hERG (KCNH2) = hERG (KCNH2) (Homo sapiens, UniProt Q12809); experiment: Inhibition of human ERG at 10 uM; assay type: toxicity
Chain of hERG (KCNH2) (Q12809 whole entry): as above

O=C(Nc1cccc2ccc(Cl)nc12)C1CCN(CCc2ccc(C(F)(F)F)cc2)CC1
pIC50 [1]: 5.52
logP [2]: 3.9
MIC90 [3]: 50 µM (≈ 23.1 µg/mL)

O=c1ccc2ncc(=O)n3c2n1C[C@H]3CN1CCC(NCc2cc3c(cn2)OCCC3)CC1 [GEPOTIDACIN]
Activity [4]: Active
Activity [5]: inactive
pIC50 [1]: 5.70
logP [2]: 0.1
MIC90 [3]: 10 µM (≈ 4.49 µg/mL)

COc1ccc2nccc(NC(=O)CC3CCN(Cc4ccc(C(F)(F)F)cc4)CC3)c2n1
pIC50 [1]: 4.40
logP [2]: 2.8
MIC90 [3]: 100 µM (≈ 45.8 µg/mL)

COc1ccc2nccc(NC(=O)C3CCN(CCc4ccc(OC(F)(F)F)cc4)CC3)c2n1
logP [2]: 4
MIC90 [3]: 100 µM (≈ 47.4 µg/mL)

COc1ccc2nccc(NC(=O)C3CCN(CCc4ccc(F)cc4)CC3)c2n1
logP [2]: 2.1
MIC90 [3]: 50 µM (≈ 20.4 µg/mL)

O=C1COc2ccc(CNC3CCN(CCn4c(=O)ccc5ccc(Oc6ccccn6)nc54)CC3)nc2N1
pIC50 [1]: 6.96
MIC [3]: 0.06 µM (≈ 0.0317 µg/mL)
pIC50 [6]: 3.81

COc1ccc2nccc(NC(=O)C3(C)CCN(CCc4ccc(C(F)(F)F)cc4)CC3)c2n1
Activity (FaDu): inactive
Stability [7]: Stable
MIC90 [8]: 6.4 µM (≈ 3.02 µg/mL)
Activity (NIH3T3): Non-Toxic
pIC50 [1]: 5.22
logP [2]: 3.3
MIC90 [3]: 3 µM (≈ 1.42 µg/mL)
MIC90 (Mycobacterium avium): 6 µM (≈ 2.84 µg/mL)
Stability [9]: Stable
MIC90 [10]: 8 µM (≈ 3.78 µg/mL)
MIC90 [11]: 3 µM (≈ 1.42 µg/mL)
Activity (A-375): inactive
Activity (HT-29): inactive
Activity (MCF7): inactive
MIC90 [12]: 8 µM (≈ 3.78 µg/mL)
Activity (HEK293): Non-Toxic
MIC90 (Staphylococcus aureus): 1 µM (≈ 0.473 µg/mL)

COc1ccc2nccc(NC(=O)C3CCN(CCc4ccc(C(F)(F)F)c(F)c4)CC3)c2n1
Activity (FaDu): inactive
MIC90 [8]: 1 µM (≈ 0.476 µg/mL)
Activity (NIH3T3): Non-Toxic
logP [2]: 3.1
MIC90 [3]: 0.6 µM (≈ 0.286 µg/mL)
MIC90 (Mycobacterium avium): 0.8 µM (≈ 0.381 µg/mL)
MIC90 [10]: 1.5 µM (≈ 0.715 µg/mL)
MIC90 [11]: 0.6 µM (≈ 0.286 µg/mL)
Activity (A-375): inactive
Activity (HT-29): inactive
Activity (MCF7): inactive
MIC90 [12]: 2 µM (≈ 0.953 µg/mL)
Activity (HEK293): Non-Toxic
MIC90 (Staphylococcus aureus): 0.5 µM (≈ 0.238 µg/mL)

COc1ccc2nccc(NC(=O)C3CCN(CCc4cccc(F)c4F)CC3)c2n1
logP [2]: 2.3
MIC90 [3]: 100 µM (≈ 42.6 µg/mL)

COc1ccc2nccc(NC(=O)C3CCN(CCc4ccc(C(F)(F)F)cc4)CC3)c2c1
pIC50 [1]: 5.22
logP [2]: 3
MIC90 [3]: 100 µM (≈ 45.7 µg/mL)

COc1ccc2cccc(NC(=O)C3CCN(CCc4ccc(C(F)(F)F)cc4)CC3)c2n1
Activity (FaDu): inactive
Activity (NIH3T3): Non-Toxic
pIC50 [1]: 5.52
logP [2]: 3.6
MIC90 [3]: 3.12 µM (≈ 1.43 µg/mL)
Activity (A-375): inactive
Activity (HT-29): inactive
Activity (MCF7): inactive
Activity (HEK293): Non-Toxic

COc1ccc2nccc(NC(=O)C3CCN(CCc4ccccc4F)CC3)c2n1
logP [2]: 2.1
MIC90 [3]: 50 µM (≈ 20.4 µg/mL)

COc1cnc2ccc(=O)n(CCN3CCC(NCc4ccc(Cl)c(Cl)c4)CC3)c2c1
MIC [3]: < 0.02 µM
pIC50 [6]: 5.88

COc1ccc2nccc(NC(=O)C3CCN(CCc4ccc(Cl)cc4)CC3)c2c1
logP [2]: 2.8
MIC90 [3]: 50 µM (≈ 21.2 µg/mL)

COc1ccc2nccc(NC(=O)C3CCN(CCc4ccc(Cl)cc4)CC3)c2n1
Activity (FaDu): inactive
pIC50 [1]: 5.52
logP [2]: 2.6
MIC90 [3]: 12 µM (≈ 5.1 µg/mL)
Activity (A-375): inactive
Activity (HT-29): inactive
Activity (MCF7): inactive

COc1ccc2nccc(NC(=O)C3CCN(CCc4cccc(F)c4)CC3)c2n1
logP [2]: 2.1
MIC90 [3]: 25 µM (≈ 10.2 µg/mL)

COc1ccc2nccc(NC(=O)C3CCN(CCc4c(F)cccc4F)CC3)c2n1
logP [2]: 2.3
MIC90 [3]: 100 µM (≈ 42.6 µg/mL)

COc1ccc2nccc(NC(=O)C3CCN(CCc4ccc(F)cc4F)CC3)c2n1
logP [2]: 2.3
MIC90 [3]: 50 µM (≈ 21.3 µg/mL)

COc1ccc(CCN2CCC(C(=O)Nc3ccnc4ccc(OC)nc34)CC2)cc1
logP [2]: 1.9
MIC90 [3]: 100 µM (≈ 42.1 µg/mL)

COc1ccc2nccc(NC(=O)C3CCN(CCc4ccc(F)c(F)c4)CC3)c2n1
logP [2]: 2.3
MIC90 [3]: 25 µM (≈ 10.7 µg/mL)

COc1ccc2nccc(NC(=O)[C@H]3CC[C@H](NCc4ccc(C(F)(F)F)cc4)CC3)c2n1
Activity (FaDu): inactive
MIC90 [8]: 1 µM (≈ 0.458 µg/mL)
Activity (NIH3T3): Non-Toxic
pIC50 [1]: 5.82
logP [2]: 3.3
MIC90 [3]: 0.4 µM (≈ 0.183 µg/mL)
MIC90 (Mycobacterium avium): 2 µM (≈ 0.917 µg/mL)
MIC90 [10]: 1.2 µM (≈ 0.55 µg/mL)
MIC90 [11]: 0.4 µM (≈ 0.183 µg/mL)
Activity (A-375): inactive
Activity (HT-29): inactive
Activity (MCF7): inactive
MIC90 [12]: 2 µM (≈ 0.917 µg/mL)
Activity (HEK293): Non-Toxic
MIC90 (Staphylococcus aureus): 0.7 µM (≈ 0.321 µg/mL)

COc1ccc2nccc(NC(=O)C3CCN(CCc4cc(F)cc(F)c4)CC3)c2n1
logP [2]: 2.3
MIC90 [3]: 50 µM (≈ 21.3 µg/mL)

COc1ccc2nccc(NS(=O)(=O)C3CCN(CCc4ccc(C(F)(F)F)cc4)CC3)c2n1
logP [2]: 2.4
MIC90 [3]: 100 µM (≈ 49.5 µg/mL)

COc1ccc2nccc(NC(=O)C3CCN(CCc4ccc(C(F)(F)F)cc4)CC3)c2n1
Activity (FaDu): inactive
Stability [7]: Stable
MIC90 [8]: 2 µM (≈ 0.917 µg/mL)
Activity (NIH3T3): Non-Toxic
pIC50 [1]: 5.82
logP [2]: 2.9
MIC90 [3]: 1.5 µM (≈ 0.688 µg/mL)
inhibition at 10 µM (hERG (KCNH2)): 93%
MIC90 (Mycobacterium avium): 2.5 µM (≈ 1.15 µg/mL)
Stability [9]: Stable
MIC90 [10]: 2 µM (≈ 0.917 µg/mL)
MIC90 [11]: 1.5 µM (≈ 0.688 µg/mL)
Activity (A-375): inactive
Activity (HT-29): inactive
Activity (MCF7): inactive
MIC90 [12]: 3.5 µM (≈ 1.6 µg/mL)
Activity (HEK293): Non-Toxic
MIC90 (Staphylococcus aureus): 0.2 µM (≈ 0.0917 µg/mL)

COc1c(N2C[C@@H]3CCCN[C@@H]3C2)c(F)cc2c(=O)c(C(=O)O)cn(C3CC3)c12 [MOXIFLOXACIN]
MIC90 [8]: 4 µM (≈ 1.61 µg/mL)
MIC90 [3]: 2 µM (≈ 0.803 µg/mL)
MIC90 (Mycobacterium avium): 0.6 µM (≈ 0.241 µg/mL)
MIC90 [10]: 4 µM (≈ 1.61 µg/mL)
MIC90 [11]: 2 µM (≈ 0.803 µg/mL)
MIC90 [12]: 4 µM (≈ 1.61 µg/mL)
MIC90 (Staphylococcus aureus): 0.2 µM (≈ 0.0803 µg/mL)

COc1ccc2nccc(NC(=O)C3CCN(CCc4cccc(C(F)(F)F)c4)CC3)c2n1
Activity (FaDu): inactive
Activity (NIH3T3): Non-Toxic
logP [2]: 2.9
MIC90 [3]: 12.5 µM (≈ 5.73 µg/mL)
Activity (A-375): inactive
Activity (HT-29): inactive
Activity (MCF7): inactive
Activity (HEK293): Non-Toxic
